As a reminder, the Kd is the free concentration of one partner at which half of the binding sites on the other are occupied at equilibrium, for simple one-to-one binding. Read a low Kd as higher affinity. For orientation: IC50 means the point on the concentration scale where inhibition reaches its midpoint. The low end stands for inhibition by little substance, the high end for a need for much substance.

One data set concerns the target T1, IL-6 (Homo sapiens, UniProt P05231).
T1 construct: purchased PeproTech
The experiment in a line: Surface plasmon resonance, immobilized IL-6. It counts as binding. As to conditions: SPR, CM5 chip, steady-state KD. How it is done: (§1) The surface plasmon resonance (SPR) assay was measured using the BIAcore T200 model (GE Healthcare, Chicago, IL, USA) with HBS-EP buffer (1×HBS-EP, GE Healthcare, Chicago, IL, USA) containing 5% dimethyl sulfoxide (DMSO; Sigma-Aldrich, St. Louis, MO, USA). The pH scouting for IL-6 (PeproTech, Rocky Hill, NJ, USA), IL-6Rα (PeproTech, Rocky Hill, NJ, USA), and gp130 (Sino Biological, Beijing, China, or ANRT, Daejeon, Korea) immobilization was performed in 10 mM acetate buffer at pH 4.5. IL-6, IL-6Rα, and gp130 were immobilized on a CM5 chip at 750, 1200, and 2000 response units (RU). Butein was injected into the IL-6, IL-6Rα and gp130-immobilized flow cell at concentrations of 10, 20, 30, 40, 50, 60, 70, 80, 90, and 100 μM with a 25 μL/min flow rate for 150 s and allowed to dissociate for 300 s. Steady-state KD was determined via the T-200 BIAevaluation software (GE Healthcare, Chicago, IL, USA).
In general terms: In SPR one partner is held on a chip, and binding of the other changes the refractive index at the surface.

Another data set concerns the target T2, IL-6Rα (Homo sapiens, UniProt P08887).
T2 construct: purchased PeproTech
T2 sequence (P08887 20-468): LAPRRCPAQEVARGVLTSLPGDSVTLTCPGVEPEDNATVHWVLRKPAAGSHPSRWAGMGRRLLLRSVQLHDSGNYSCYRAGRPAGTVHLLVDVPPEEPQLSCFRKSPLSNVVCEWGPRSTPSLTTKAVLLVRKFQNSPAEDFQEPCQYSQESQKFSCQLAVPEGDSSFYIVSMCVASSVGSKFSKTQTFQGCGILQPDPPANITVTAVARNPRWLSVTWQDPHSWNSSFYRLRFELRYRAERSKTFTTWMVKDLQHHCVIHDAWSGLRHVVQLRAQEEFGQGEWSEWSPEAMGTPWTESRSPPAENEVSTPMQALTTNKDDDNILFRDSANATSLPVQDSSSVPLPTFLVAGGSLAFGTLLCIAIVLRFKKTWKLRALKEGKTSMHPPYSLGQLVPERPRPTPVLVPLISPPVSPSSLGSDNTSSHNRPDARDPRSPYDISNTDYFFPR
The experiment in a line: Surface plasmon resonance, immobilized IL-6Rα. As to conditions: SPR, CM5 chip, steady-state KD. It counts as binding. How it is done: as §1

Data set [1] relates to SKOV3 cells. The experiment in a line: Cell viability by MTT assay, SKOV3. To be noted: Homo sapiens, SK-OV-3, 48 h. It counts as cell-based. How it is done:
A2780 and SKOV3 cell lines were purchased from the European Collection of Cell Cultures (ECACC, London, UK) and Korean Cell Line Bank (KCLB, Seoul, Republic of Korea) respectively. Each cell line was seeded in a 96-well plate at an appropriate cell number (3000 cells/100 μL in each well). After 24 h, butein was added to the plates at each of the following concentrations, 0, 3.125, 6.25, 12.5, 25, and 50 μM, in triplicate in the presence of serum medium. After 48 h, 100 μL of […] (Sigma-Aldrich, St. Louis, MO, USA) solubilizing solution was added to each well and incubated for 4 h. The solution was then aspirated, and 100 μL of DMSO was added for cell lysis. The spectrophotometric absorbance was measured at 540 nm. Half of the maximum inhibitory concentration (IC50) was determined using GraphPad Prism software (version 7.0).

The subject of data set [2] is SKOV3 cells. The experiment in a line: Flow cytometric cell cycle analysis (PI), SKOV3. It counts as cell-based, human. As to conditions: butein treatment; 58.3% under control conditions. How it is done: (§2) A2780 and SKOV3 cell lines were treated with control (siltuximab 10 μM) and butein (5, 10, and 25 μM). After 6 h, the cells were fixed with 70% ethanol for cell cycle analysis and stained with propidium iodide (PI). Cell death was analyzed using the FITC Annexin V Apoptosis Detection kit with 7-AAD (Cat.no. 640922, BioLegend, San Diego, CA, USA). Cells were sorted using a FACS Canto II (BD Biosciences, Franklin Lakes, NJ, USA) and cell cycle and apoptosis were analyzed using BD FACS Diva software version 6. 2. Analysis (BD Biosciences, Franklin Lakes, NJ, USA) was performed in triplicate.
A general note: Flow cytometry measures light scatter and fluorescence of single cells or particles in a stream.

Data set [3] has as its system SKOV3 cells. The experiment in a line: Annexin V apoptosis assay, SKOV3. Type of data set: cell-based, human. As to conditions: dose-dependent, p < 0.005. How it is done: as §2
The test system of data set [4] is SKOV3 cells. In words: Wound-healing assay, SKOV3. Type of data set: cell-based, human. As to conditions: 24 h and 48 h, concentration-dependent, vs control, 0.1% DMSO and siltuximab. The protocol:
A2780 and SKOV3 cells were cultured to 90% confluence in 6-well plates. After changing to a serum-free medium, the cell monolayer was scraped to artificially form homogeneous wound with uniform thickness. The drug treatment for each well was carried out in the following manner: siltuximab at 50 μM; butein at 10, 25, and 50 μM. The cells were imaged at 0, 24, and 48 h.

The subject of data set [5] is SKOV3 cells. The experiment in a line: Matrigel invasion assay, SKOV3. Type of data set: cell-based, human. As to conditions: 48 h. The protocol:
Matrigel invasion assays were performed using a BioCoat Matrigel Invasion Chamber (BD Bioscience, Bedford, MA, USA). A2780 and SKOV3 cells (50,000 cells) were placed inside the chamber in serum-free medium containing 500 μL of drugs, and 700 μL of medium containing serum were placed outside the chamber. After incubation for 48 h, the infiltrating cells were stained using the Differential Quick Stain Kit (Cat.no. 26096-50, Electron Microscopy Sciences, Hatfield, PA, USA). Cells were imaged with a Slide Scanner (Aperio CS2, Leica Microsystems, Wetzlar, Germany) and the number of invading cells was quantified using Image J.

A further data set has as its system A2780 xenograft tumors. The experiment in a line: A2780 mouse xenograft. It counts as in vivo, BALB/c nude mice. The protocol:
Adult BALB/c nude mice aged 5 weeks (n = 5, body weight 17−19 g) were purchased from Orient Bio (Seongnam, Republic of Korea) and reared in aseptic conditions with 55 ± 10% humidity and 25 ± 2 °C temperature under a 12 h/12 h light-dark cycle (Catholic University protocol). All animal experimental work was carried out in compliance with the legal obligations and federal guidelines and legal obligations for the care and maintenance of laboratory animals. All animal experiments were conducted with the approval of the Institutional Animal Care and Use Committee of the Catholic University of Korea (approval number: CUK-IACUC-2019-026-01). A2780 cell suspension (1 × 10^7 cells/200 μL in 1 × PBS) was injected subcutaneously into the dorsal scapula area of each mouse. The tumor developed 14 days after implantation to a size of approximately 150 mm^3. The mice were then divided randomly into vehicle control (5% DMSO), siltuximab (10 mg/kg), and butein (2 or 4 mg/kg) groups. All drugs were dissolved in 0.05% carboxymethylcellulose sodium salt (CMC) (Sigma-Aldrich, St. Louis, MO, USA) and injected intraperitoneally five times a week for three weeks. The tumor size was measured using calipers once every 2 days. The tumor volume was calculated using a simplified equation (length × width^2 × 0.5). Each tumor was harvested 22 days post-treatment.

Molecules are shown by their SMILES.

T1 sequence (P05231 30-212): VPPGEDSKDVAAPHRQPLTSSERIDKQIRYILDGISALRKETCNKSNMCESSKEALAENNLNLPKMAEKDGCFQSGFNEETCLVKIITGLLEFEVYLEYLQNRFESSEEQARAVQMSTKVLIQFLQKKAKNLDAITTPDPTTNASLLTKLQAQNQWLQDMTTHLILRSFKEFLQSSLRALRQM

On to `O=C(/C=C/c1ccc(O)c(O)c1)c1ccc(O)cc1O` [butein], for which the Kd was determined as 91.4 µM on IL-6 and 435 µM at IL-6Rα. In the data set on SKOV3 cells [1], this compound returned an IC50 of 175 ± 61.9 µM. The “SKOV3 cells in G1-phase” value in the data set on SKOV3 cells [2] came out at 65.8%. Moreover, in the data set on SKOV3 cells [3], the “Total apoptosis, SKOV3” value is given as “significantly increase”. Further, the “Cell migration, SKOV3” value in the data set on SKOV3 cells [4] is given as “reduced”. Also, the “Cell infiltration (invasion), SKOV3” value in the data set on SKOV3 cells [5] is on record as “similarly affected”. In addition, the Tumor growth entry with A2780 xenograft tumors (2 or 4 mg/kg i.p. five times a week, vs vehicle and siltuximab-treated group) was “significant inhibition”. Besides, in the data set on A2780 xenograft tumors (during the experimental period), the Total mouse weight result is recorded as “no difference”.
